Measured values: US12187758B2 (ROME Therapeutics, Inc., priority 2022, dated 2025)

Key:
Format in all cases: cell-based
THP1-Dual KO-TREX1 cells = assay: THP1 TREX1 KO inhibition assay (type 1 interferon response); conditions: Homo sapiens, 144 h, type 1 interferon (QUANTI-LUC), 1 μM 5-aza-2′-deoxycytidine, six days
Description: Exemplary compounds were tested for their ability to alter the type 1 interferon response in THP1 Dual TREX1 KG cells treated with 5-aza-2′-deoxycytidine. Assay procedures and results are described below.
THP1 Dual TREX1 KG cells were purchased from Invivogen. The THP1-Dual™ KO-TREX1 cells were cultured in RPMI 1640, 10% heat-inactivated fetal bovine serum, 25 mM HEPES, 10 μg/mL blasticidin, and 100 μg/mL zeocin. THP1-Dual™ KO-TREX1 cells were treated with a dose titration of a test compound alone or in the presence of 1 μM 5-aza-2′-deoxycytidine (Sigma-Aldrich, cat #189825). Type 1 Interferon and cell viability were assessed after six days of treatment.
Stock solution of the test compound was prepared in DMSO followed by a three-fold dilution in DMSO. Additional 50× dilution was prepared in cell culture media for each dilution. 10 μL of diluted test compound was then added to a 96-well plate.
THP1-Dual™ KO-TREX1 cells were treated with either 1×PBS or 1 μM 5-aza-2′-deoxycytidine. […] of the THP1-Dual™ KO-TREX1 cells from either treatment were added to each well of the 96-well plate containing the test compound titration at 50,000 cells/well. Cells were incubated at 37° C., 5% CO2 in a humidified incubator for six days. Cells treated with 1 μM 5-aza-2′-deoxycytidine were added at the same density as above and incubated at 37° C., 5% CO2 in a humidified incubator for six days. On day six, 25 μL of cell supernatant was transferred to a 96-well white-walled plate, followed by addition to each well of 50 μL of QUANTI-LUC solution containing stabilizer. Luminescence was detected on a plate reader according to the manufacturer's instructions.
The remaining cells were assessed for cell viability by adding 25 μL of CellTiter-Glo (Promega, G9683) solution to each well, and being placed on a shaker for 10 minutes at room temperature. Luminescence was detected on a plate reader, according to the manufacturer's instructions.
In the tables “A” represents values≤0.050 μM; “B” represents values from >0.050 μM to ≤0.100 μM; “C” represents values from >0.100 μM to ≤0.250 μM; “D” represents values from >0.250 μM to ≤1 μM; “E” represents values>1 μM; and “NT”=not tested: […]

[1] = Mitochondria toxicity assay with PC3 cells, in-cell ELISA COX-1; conditions: 5 days treatment
Description: (§1) Exemplary compounds were tested for inhibition of expression of mitochondria DNA encoded proteins COX-1 […]. SDH-A (succinate dehydrogenase-A) is a control mitochondria protein encoded by nuclear DNA. Reduction in COX-1 expression indicates off target inhibition of mitochondria DNA synthesis which leads to mitochondrial toxicity. Assay procedures and results are described below.
(§2) PC3 cells were purchased from ATCC and cultured in F-12 Kaighn's modified medium (Hyclone), 10% heat-inactivated fetal bovine serum (Invitrogen), 1% Penicillin-Streptomycin (Invitrogen). PC3 cells were treated with a dose titration of a test compound on 96 well plates for 5 days at 37° C., 5% CO2 in a humidified incubator. The treatment plates are duplicated, one for in-cell ELISA for mitochondria proteins and one for cytotoxicity.
(§3) In-cell ELISA was performed to measure mitochondrial proteins using MitoBiogenesis In-Cell ELISA kit (Abcam) per manufacturer's instruction. The medium was aspirated from the compound treated cells, 100 μl per well of 4% paraformaldehyde (Solarbio) was added and cells were incubated at room temperature for 20 minutes. The cells were washed three times with PBS. 100 μl of 0.5% acetic acid was added per cell, and the cells were incubate at room temperature for 5 minutes. Cells were washed once with PBS. 100 μl per well of Permeabilization Buffer was added, and the cells incubate at room temperature for 30 minutes. The permeabilization buffer was removed and 200 μl per well 2× Blocking Buffer was added and the cells were incubated at room temperature for 2 hours. After removing the Blocking Buffer 100 μl per well of primary antibody to SDH-A or COX-1 was added, and the cells were incubated at 4° C. overnight. The primary antibody solution was removed and cells were washed 3 times with the Wash Buffer. 100 μl per well of AP- and HRP-labelled secondary antibodies was added, and the cells were incubated at room temperature for 1 hour. The cells were then washed 4 times with the Wash Buffer. For SDH-A detection, 100 μl per well AP Development Solution was added, and the cells were incubated at room temperature for 10 minutes. Cells were then read on CLARTO star^plus microplate reader (BMG Labtech) for kinetic readings at 405 nm for 5 minutes. […] The cells were then read on CLARTO star^plus microplate reader (BMG Labtech) for kinetic readings at 600 nm for 15 minutes.
(§4) In the table “A” represents values<1.0 μM; “B” represents values from >1.0 μM to ≤10.0 μM; “C” represents values from >10.0 μM to ≤50.0 μM; “D” represents values from >50.0 μM to ≤100.0 μM; and “E” represents values>100.0 μM.

[2] = system: SDH-A (succinate dehydrogenase-A); assay: Mitochondria toxicity assay with PC3 cells, in-cell ELISA SDH-A; conditions: 5 days treatment
Description: as §1, §2, §3, §4

PC3 cells = assay: Mitochondria toxicity assay with PC3 cells, cytotoxicity (Cell Titer Glo); conditions: Homo sapiens, PC-3, 120 h, 5 days treatment
Description: as §2
For the cytotoxicity assay, the medium from the cell viability plate was removed, 50 μL per well of Cell Titer Glo (Promega, G9683) was added. Then the cells incubated for 30 minutes at room temperature. Luminescence was read by Envision (PerkinElmer 2105).
as §4

IC50 (THP1-Dual KO-TREX1 cells) [µM]	SMILES	IC50 [1] [µM]	IC50 [2] [µM]	IC50 (PC3 cells) [µM]
0.25 to 1	C#C[C@]1(CO)O[C@@H](n2ccc(N)nc2=O)[C@@H](F)[C@@H]1O [Compound 35, 4-amino-1-((2R,3S,4R,5R)-5-ethynyl-3-fluoro-4-hydroxy-5-(hydroxymethyl)tetrahydrofuran-2-yl)pyrimidin-2(1H)-one]	< 1	> 100	< 1
> 1	C#C[C@]1(CO)O[C@@H](c2ccc3c(N)ncnn23)C[C@@H]1O [Compound 37, (2R,3S,5R)-5-(4-aminopyrrolo[2,1-f][1,2,4]triazin-7-yl)-2-ethyny1-2-(hydroxymethyl)tetrahydro-furan-3-ol]	1 to 10	1 to 10	10 to 50
> 1	C#C[C@]1(CO)O[C@@H](n2cc(C)c(=O)[nH]c2=O)C[C@@H]1O [Compound 38, 1-((2R,4S,5R)-5-ethynyl-4-hydroxy-5-(hydroxymethyl)tetrahydrofuran-2-yl)-5-methylpyrimidine-2,4(1H,3H)-dione]	> 100	> 100	> 100
> 1	C#C[C@]1(CO)O[C@@H](n2cc(C)c(=O)[nH]c2=O)[C@@H](F)[C@@H]1O [Compound 39, 1-((2R,3S,4R,5R)-5-ethynyl-3-fluoro-4-hydroxy-5-(hydroxymethyl)tetrahydrofuran-2-yl)-5-methylpyrimidine-2,4(1H,3H)-dione]	> 100	> 100	> 100
> 1	C#C[C@]1(CO)O[C@@H](n2cnc3c(N)nc(F)nc32)[C@@H](F)[C@@H]1O [Compound 42, (2R,3R,4S,5R)-5-(6-amino-2-fluoro-9H-purin-9-yl)-2-ethynyl-4-fluoro-2-(hydroxymethyl)tetrahydro-furan-3-ol]	10 to 50	10 to 50	50 to 100
> 1	C=C[C@]1(CO)O[C@@H](n2ccc(N)nc2=O)C[C@@H]1O [Compound 43, 4-amino-1-((2R,4S,5R)-4-hydroxy-5-(hydroxymethyl)-5-vinyltetrahydrofuran-2-yl)pyrimidin-2(1H)-one]	1 to 10	1 to 10	> 100
> 1	Nc1ccn([C@H]2C[C@H](O)[C@](CO)(CF)O2)c(=O)n1 [Compound 45, 4-amino-1-((2R,4S,5R)-5-(fluoromethyl)-4-hydroxy-5-(hydroxymethyl)tetrahydro-furan-2-yl)pyrimidin-2(1H)-one]	< 1	< 1	1 to 10
> 1	Nc1nc2c(ncn2[C@H]2C[C@H](O)[C@](CO)(CF)O2)c(=O)[nH]1 [Compound 46, 2-amino-9-((2R,4S,5R)-5-(fluoromethyl)-4-hydroxy-5-(hydroxymethyl)tetrahydro-furan-2-yl)-1,9-dihydro-6H-purin-6-one]	1 to 10	1 to 10	1 to 10
> 1	C=C[C@]1(CO)O[C@@H](n2ccc(N)nc2=O)[C@@H](F)[C@@H]1O [Compound 47, 4-amino-1-((2R,3S,4R,5R)-3-fluoro-4-hydroxy-5-(hydroxymethyl)-5-vinyltetrahydrofuran-2-yl)pyrimidin-2(1H)-one]	1 to 10	1 to 10	1 to 10
0.25 to 1	[N-]=[N+]=N[C@]1(CO)O[C@@H](n2ccc(N)nc2=O)[C@@H](F)[C@@H]1O [Compound 50, 4-amino-1-((2R,3S,4R,5R)-5-azido-3-fluoro-4-hydroxy-5-(hydroxymethyl)tetrahydrofuran-2-yl)pyrimidin-2(1H)-one]	< 1	< 1	< 1
> 1	CC[C@]1(COC(=O)C(C)C)O[C@@H](n2ccc(N)nc2=O)C[C@@H]1OC(=O)C(C)C [Compound 52, [(2R,3S,5R)-5-(4-amino-2-oxopyrimidin-1-yl)-2-ethyl-3-[(2-methylpropanoyl)oxy]oxolan-2-yl] methyl 2-methylpropanoate]	> 100	> 100	> 100
> 1	C=C[C@]1(COC(=O)C(C)C)O[C@@H](n2ccc(N)nc2=O)C[C@@H]1OC(=O)C(C)C [Compound 53, [(2R,3S,5R)-5-(4-amino-2-oxopyrimidin-1-yl)-2-ethenyl-3-[(2-methylpropanoyl)oxy]oxolan-2-yl] methyl 2-methylpropanoate]	> 100	> 100	> 100
> 1	CC(C)[C@]1(CO)O[C@@H](n2ccc(N)nc2=O)C[C@@H]1O [Compound 55, 4-amino-1-[(2R,4S,5R)-4-hydroxy-5-(hydroxymethyl)-5-isopropyloxolan-2-yl] pyrimidin-2-one]	> 100	> 100	> 100
> 1	C=CCC1(CO)O[C@@H](n2ccc(N)nc2=O)C[C@@H]1O (stereo partly drawn) [Compound 56, 1-((2R,4S)-5-allyl-4-hydroxy-5-(hydroxymethyl)tetrahydrofuran-2-yl)-4-aminopyrimidin-2(1H)-one]	> 100	> 100	> 100
> 1	CCCC1(CO)O[C@@H](n2ccc(N)nc2=O)C[C@@H]1O (stereo partly drawn) [Compound 57, 4-amino-1-((2R,4S,5R)-4-hydroxy-5-(hydroxymethyl)-5-propyltetrahydrofuran-2-yl)pyrimidin-2(1H)-one]	> 100	> 100	> 100
> 1	CC(C)C(=O)OC[C@@]1(CCl)O[C@@H](n2cc(F)c(N)nc2=O)C[C@@H]1OC(=O)C(C)C [Compound 58]	10 to 50	> 100	> 100
> 1	CCC[C@]1(CO)O[C@@H](n2ccc(N)nc2=O)C[C@@H]1O [Compound 60, 4-amino-1-((2R,4S,5R)-4-hydroxy-5-(hydroxymethyl)-5-propyltetrahydrofuran-2-yl)pyrimidin-2(1H)-one]	> 100	> 100	> 100
> 1	Nc1ccn([C@H]2C[C@H](O)[C@](CO)(CC(F)(F)F)O2)c(=O)n1 [Compound 62, 4-amino-1-[(2R,4S,5R)-4-hydroxy-5-(hydroxymethyl)-5-(2,2,2-trifluoroethyl)oxolan-2-yl] pyrimidin-2-one]	10 to 50	10 to 50	10 to 50
